Publication PMC12655529, “Serendipitous Hinge Modulation Hypothetically Reprograms Caerin 1.1-LC Antibacterial Mechanism and Gram-Negative Selectivity” (Pharmaceutics, 2025)
Ends that are not written are not given here.

Key:
[1] = system: Escherichia coli ATCC 8739; assay type: cell-based; conditions: ATCC 8739
E. coli ATCC BAA-2340 = assay type: cell-based, Escherichia coli
Method: (§1) The antimicrobial activities of the peptides were evaluated by determining their minimal inhibitory concentration (MIC) and minimal bactericidal concentration (MBC) values following reported protocols [20]. The tested microorganisms included seven Gram-negative bacterial strains (Escherichia coli ATCC 8739, E. coli ATCC-BAA 2340, E. coli NCTC 13846, Klebsiella pneumoniae ATCC 43816, K. pneumoniae ATCC BAA-2342, Pseudomonas aeruginosa ATCC 9027, Acinetobacter baumannii ATCC BAA-747), three Gram-positive bacterial strains (Staphylococcus aureus ATCC 6538, Enterococcus faecalis NCTC 12697, MRSA NCTC 12493, and the fungal strain Candida albicans ATCC 10231. For the assay, each bacterial strain was cultured overnight at 37 °C in 100 mL of medium in a flask. The cultures were then subcultured to reach the logarithmic growth phase and diluted to 5 × 10^5 CFU/mL. Peptide samples were serially diluted two-fold in microplates, with concentrations ranging from 128 μM to 1 μM. The diluted bacterial suspensions were mixed with the peptide solutions and incubated overnight at 37 °C. The MIC values were determined by measuring the absorbance of each well using a Synergy HT plate reader (Agilent, Cheshire, UK). For MBC determination, aliquots from wells showing no visible growth were inoculated onto agar plates to assess bacterial viability. Each experiment was repeated independently three times and conducted in three independent replicates.

E. coli NCTC 13846 = assay type: cell-based, Escherichia coli
[2] = system: Klebsiella pneumoniae ATCC 43816; assay type: cell-based; conditions: ATCC 43816
Method: as §1

[3] = system: K. pneumoniae ATCC BAA-2342; assay type: cell-based, Klebsiella pneumoniae
Method: as §1

[4] = system: Pseudomonas aeruginosa ATCC 9027; assay type: cell-based
[5] = system: Acinetobacter baumannii ATCC BAA-747; assay type: cell-based; conditions: ATCC BAA-747
Method: as §1

[6] = system: Staphylococcus aureus ATCC 6538; assay type: cell-based; conditions: ATCC 6538
Method: as §1

[7] = system: Enterococcus faecalis NCTC 12697; assay type: cell-based; conditions: NCTC 12697
MRSA NCTC 12493 = assay type: cell-based, Staphylococcus aureus
Method: as §1

horse red blood cells = experiment: Haemolysis assay; assay type: cell-based; conditions: concentration inducing 10% haemolysis of horse erythrocytes; 4% (v/v) in PBS, 2 h, 37 °C, absorbance 570 nm; no haemolysis at maximum testing concentration (128 μM) recorded as 256 μM
Method: The peptide cytotoxicity against mammalian erythrocytes was evaluated by haemolysis assay on horse red blood cells (E&O Laboratories Ltd., Falkirk, UK). Fresh horse blood was washed three times with PBS and resuspended to a final concentration of 4% (v/v) in PBS. The diluted blood suspension was then mixed with peptide solutions at varying concentrations and incubated for 2 h at 37 °C. Red blood cell suspensions treated with 0.1% Triton X-100 and PBS were used as controls. The Triton X-100-treated suspension was the positive control (for 100% haemolysis), while the PBS-treated suspension was the blank control. Following incubation, the mixtures were centrifuged at 1000× g for 10 min to separate erythrocytes from the supernatant. The absorbance of the supernatants was detected at 570 nm. The percentage haemolysis was calculated by following the equationPercentage Haemolysis = (AbsSample − AbsBlank)/(AbsPositive − AbsBlank) × 100%

Gram-negative bacteria = experiment: Geometric mean MIC and therapeutic index, Gram-negative; assay type: cell-based; conditions: geometric mean of MICs
Gram-positive bacteria = experiment: Geometric mean MIC and therapeutic index, Gram-positive; assay type: cell-based; conditions: geometric mean of MICs
E. coli (ATCC-BAA 2340) = assay type: cell-based, Escherichia coli; conditions: ATCC-BAA 2340
Method: The peptide sensitivity was determined in different salt- and serum-containing environments. Bacterial strains were prepared following the MIC detection protocol described previously. To evaluate peptide sensitivity under physiological conditions, various concentrations of salt ions (150 mM NaCl, 4.5 mM KCl, 2 mM CaCl2, 1 mM MgCl2, 8 µM ZnCl2, 6 µM NH4Cl, or 4 µM FeCl3) and serum (10% FBS) were prepared in McCartney bottles prior to the addition of bacterial suspensions. The subcultured bacterial suspensions were then introduced to these modified media conditions. For MIC determination, the treated bacterial suspensions were diluted and dispensed into 96-well plates containing peptide solutions at graded concentrations. This assay allowed for the detection of potential alterations in MIC values, serving as an indicator of peptide sensitivity under different physiological conditions. All experiments were independently repeated three times, each with three replicates.

Substance	MBC, E. coli (ATCC 8739) [1] [µM]	MIC, E. coli (ATCC 8739) [1] [µM]	MBC, E. coli (ATCC BAA-2340) (E. coli ATCC BAA-2340) [µM]	MIC, E. coli (ATCC BAA-2340) (E. coli ATCC BAA-2340) [µM]	MBC, K. pneumoniae (ATCC 43816) [2] [µM]	MIC, K. pneumoniae (ATCC 43816) [2] [µM]	MBC, K. pneumoniae (ATCC BAA-2342) [3] [µM]	MIC, K. pneumoniae (ATCC BAA-2342) [3] [µM]	MBC, P. aeruginosa (ATCC 9027) [4] [µM]	MIC, P. aeruginosa (ATCC 9027) [4] [µM]	MBC, A. baumannii (ATCC BAA-747) [5] [µM]	MIC, A. baumannii (ATCC BAA-747) [5] [µM]	MBC, S. aureus (ATCC 6538) [6] [µM]	MIC, S. aureus (ATCC 6538) [6] [µM]	MBC, E. faecalis (NCTC 12697) [7] [µM]	MIC, E. faecalis (NCTC 12697) [7] [µM]	MBC, MRSA (NCTC 12493) (MRSA NCTC 12493) [µM]	MIC, MRSA (NCTC 12493) (MRSA NCTC 12493) [µM]	HC10 (horse red blood cells) [µM]	GM MIC Gram-Positive (Gram-positive bacteria) [µM]	other results
GLLSVLGSLKKIVPHVVPLIAEKL-NH2 [Caerin 1.1-LC 11K]	16	8	8	2	32	16	16	8	32	16	32	32	32	8	128	128	8	8	35.8	20.1	MBC, E. coli (NCTC 13846) (E. coli NCTC 13846): 8 µM; MIC, E. coli (NCTC 13846) (E. coli NCTC 13846): 4 µM; GM MIC Gram-Negative (Gram-negative bacteria): 8.8 µM
GLLSVLGSLKLIVPGGGPLIAEKL-NH2 [Caerin 1.1-LC PGGGP]	128	128	> 128	128	>128	>128	>128	>128	>128	>128	>128	>128	>128	>128	>128	>128	>128	>128	256	256	GM MIC Gram-Negative (Gram-negative bacteria): 190.21 µM
GLLSVLGSLKKIVPHVVPLIAKKL-NH2 [Caerin 1.1-LC 11K.22K]	2	1	2	2	16	8	4	4	8	4	16	4	16	4	64	64	8	4	10.3	3.17	MBC, E. coli (NCTC 13846) (E. coli NCTC 13846): 8 µM; MIC, E. coli (NCTC 13846) (E. coli NCTC 13846): 4 µM; MIC, Ca^2+ (E. coli (ATCC-BAA 2340)): 32 µM; MIC, Control (E. coli (ATCC-BAA 2340)): 4 µM; MIC, FBS (E. coli (ATCC-BAA 2340)): 16 µM; MIC, Fe^3+ (E. coli (ATCC-BAA 2340)): 8 µM; MIC, K^+ (E. coli (ATCC-BAA 2340)): 8 µM; MIC, Mg^2+ (E. coli (ATCC-BAA 2340)): 16 µM; MIC, NH4^+ (E. coli (ATCC-BAA 2340)): 8 µM; MIC, Na^+ (E. coli (ATCC-BAA 2340)): 8 µM
